Source: PubChem BioAssay AID222 (DTP/NCI, 2004)
Where “and” joins values, the source holds several entries; their conditions need not be identical. Equal entries are not always repeated. Toxic doses and inconclusive results are not listed. How the source made its calls: active means survival T/C of 150% or more; inactive means T/C below 125% in these data.

System: C57BL/6 mice, intracerebral ependymoblastoma, median survival T/C
Experiment: NCI In Vivo Anticancer Drug Screen. Data for tumor model Ependymoblastoma (intracerebral) in C57BL/6 mice
Conditions: endpoint: median survival time, higher = longer survival
Protocol: The antitumor activity of compounds was measured in mice bearing transplantable tumors. Survival or tumor size were measured and the results are expressed as the measurement made in the treated group (T) divided by the measurement made in the vehicle treated control group (C). The tumor model used in this assay is Ependymoblastoma (intracerebral) in C57BL/6 mice

[1] = dose: 4.0 mg/kg/injection, schedule: Q01DX005 (ip), vehicle: saline with Tween-80
[2] = dose: 8.0 mg/kg/injection, schedule: Q01DX005 (ip), vehicle: saline with Tween-80
[3] = dose: 16.0 mg/kg/injection, schedule: Q01DX005 (ip), vehicle: saline with Tween-80
[4] = dose: 32.0 mg/kg/injection, schedule: Q01DX005 (ip), vehicle: saline with Tween-80
[5] = dose: 0.05 mg/kg/injection, schedule: Q01DX005 (ip), vehicle: saline
[6] = dose: 0.1 mg/kg/injection, schedule: Q01DX005 (ip), vehicle: saline
[7] = dose: 0.2 mg/kg/injection, schedule: Q01DX005 (ip), vehicle: saline
[8] = dose: 0.4 mg/kg/injection, schedule: Q01DX005 (ip), vehicle: saline
[9] = dose: 0.8 mg/kg/injection, schedule: Q01DX005 (ip), vehicle: saline
[10] = dose: 1.6 mg/kg/injection, schedule: Q01DX005 (ip), vehicle: saline
[11] = dose: 16.0 mg/kg/injection, schedule: Q01DX001 (ip), vehicle: Klucel (hydroxypropylcellulose) (HPC)
[12] = dose: 16.0 mg/kg/injection, schedule: Q01DX005 (oral), vehicle: Klucel (hydroxypropylcellulose) (HPC)
[13] = dose: 16.0 mg/kg/injection, schedule: Q#A X002 (ip), vehicle: Klucel (hydroxypropylcellulose) (HPC)
[14] = dose: 64.0 mg/kg/injection, schedule: Q01DX001 (ip), vehicle: Klucel (hydroxypropylcellulose) (HPC)
[15] = dose: 64.0 mg/kg/injection, schedule: Q01DX001 (oral), vehicle: Klucel (hydroxypropylcellulose) (HPC)
[16] = dose: 256.0 mg/kg/injection, schedule: Q01DX001 (oral), vehicle: Klucel (hydroxypropylcellulose) (HPC)
[17] = dose: 2.0 mg/kg/injection, schedule: Q01DX005 (ip), vehicle: saline with Tween-80

Measured: T/C

COc1cc2c3c(c1)-c1c(ccc(OC)c1OC)CC3N(CCN(CCCl)CCCl)CC2 (centres undefined)
inactive: [1] 101 % of control and 108 % of control | [2] 104 % of control and 105 % of control | [3] 108 % of control | [4] 110 % of control

COc1ccc2c(c1OC(C)=O)-c1cc(O)cc3c1C(C2)N(C(=O)CN(CCCl)CCCl)CC3 (centres undefined)
inactive: dose: 12.5 mg/kg/injection, schedule: Q04DX003 (ip), vehicle: saline 94 % of control | dose: 25.0 mg/kg/injection, schedule: Q04DX003 (ip), vehicle: saline 99 % of control | dose: 50.0 mg/kg/injection, schedule: Q04DX003 (ip), vehicle: saline 86 % of control

CCC1=C[C@H]2CN(CCc3c([nH]c4ccccc34)[C@@](C(=O)OC)(c3cc4c(cc3OC)N(C)[C@H]3[C@@](O)(C(=O)OC)[C@H](OC(C)=O)[C@]5(CC)C=CCN6CC[C@]43[C@@H]65)C2)C1
inactive: [5] 100 % of control | [6] 108 % of control | [7] 110 % of control | [8] 103 % of control | [9] 102 % of control | [10] 105 % of control

CC[C@]12CN3CCc4c([nH]c5ccccc45)[C@@](C(=O)OC)(c4cc5c(cc4OC)N(C)[C@H]4[C@@](O)(C(=O)OC)[C@H](OC(C)=O)[C@]6(CC)C=CCN7CC[C@]54[C@@H]76)CC(C3)[C@H]1O2 (some centres undefined)
inactive: [5] 94 % of control | [6] 93 % of control | [7] 93 % of control | [8] 108 % of control | [9] 103 % of control | [10] 103 % of control | dose: 3.2 mg/kg/injection, schedule: Q01DX005 (ip), vehicle: saline 113 % of control | dose: 6.4 mg/kg/injection, schedule: Q01DX005 (ip), vehicle: saline 103 % of control | dose: 12.8 mg/kg/injection, schedule: Q01DX005 (ip), vehicle: saline 103 % of control

CCOC(=O)CNC(=O)CCCCSc1ncnc2nc[nH]c12
inactive: dose: 1.0 mg/kg/injection, schedule: Q01DX005 (ip), vehicle: Klucel (hydroxypropylcellulose) (HPC) 109 % of control | dose: 4.0 mg/kg/injection, schedule: Q01DX005 (ip), vehicle: saline 103 % of control | dose: 8.0 mg/kg/injection, schedule: Q01DX005 (ip), vehicle: Klucel (hydroxypropylcellulose) (HPC) 104 % of control | [11] 104 % of control and 105 % of control and 106 % of control | dose: 16.0 mg/kg/injection, schedule: Q01DX001 (oral), vehicle: Klucel (hydroxypropylcellulose) (HPC) 95 % of control and 102 % of control | dose: 16.0 mg/kg/injection, schedule: Q01DX005 (ip), vehicle: saline 95 % of control and 103 % of control | [12] 94 % of control | [13] 108 % of control | dose: 32.0 mg/kg/injection, schedule: Q01DX005 (ip), vehicle: Klucel (hydroxypropylcellulose) (HPC) 103 % of control and 117 % of control | dose: 32.0 mg/kg/injection, schedule: Q## X006 (ip), vehicle: Klucel (hydroxypropylcellulose) (HPC) 102 % of control | [14] 90 % of control and 100 % of control and 108 % of control | [15] 102 % of control and 103 % of control | dose: 64.0 mg/kg/injection, schedule: Q01DX005 (ip), vehicle: saline 102 % of control and 107 % of control | dose: 64.0 mg/kg/injection, schedule: Q01DX005 (oral), vehicle: Klucel (hydroxypropylcellulose) (HPC) 106 % of control | dose: 64.0 mg/kg/injection, schedule: Q## X006 (ip), vehicle: Klucel (hydroxypropylcellulose) (HPC) 120 % of control | dose: 64.0 mg/kg/injection, schedule: Q#A X002 (ip), vehicle: Klucel (hydroxypropylcellulose) (HPC) 116 % of control | dose: 128.0 mg/kg/injection, schedule: Q01DX005 (ip), vehicle: Klucel (hydroxypropylcellulose) (HPC) 113 % of control and 116 % of control | dose: 128.0 mg/kg/injection, schedule: Q## X006 (ip), vehicle: Klucel (hydroxypropylcellulose) (HPC) 106 % of control | dose: 256.0 mg/kg/injection, schedule: Q01DX001 (ip), vehicle: Klucel (hydroxypropylcellulose) (HPC) 96 % of control and 106 % of control and 113 % of control | [16] 107 % of control | dose: 256.0 mg/kg/injection, schedule: Q01DX005 (ip), vehicle: saline 92 % of control and 109 % of control | dose: 256.0 mg/kg/injection, schedule: Q01DX005 (oral), vehicle: Klucel (hydroxypropylcellulose) (HPC) 108 % of control | dose: 256.0 mg/kg/injection, schedule: Q## X006 (ip), vehicle: Klucel (hydroxypropylcellulose) (HPC) 115 % of control | dose: 256.0 mg/kg/injection, schedule: Q#A X002 (ip), vehicle: Klucel (hydroxypropylcellulose) (HPC) 114 % of control | dose: 266.0 mg/kg/injection, schedule: Q01DX005 (ip), vehicle: Klucel (hydroxypropylcellulose) (HPC) 113 % of control and 120 % of control | dose: 512.0 mg/kg/injection, schedule: Q01DX005 (ip), vehicle: Klucel (hydroxypropylcellulose) (HPC) 108 % of control | dose: 512.0 mg/kg/injection, schedule: Q## X006 (ip), vehicle: Klucel (hydroxypropylcellulose) (HPC) 105 % of control | dose: 1024.0 mg/kg/injection, schedule: Q01DX001 (ip), vehicle: Klucel (hydroxypropylcellulose) (HPC) 103 % of control and 106 % of control and 112 % of control | dose: 1024.0 mg/kg/injection, schedule: Q01DX001 (oral), vehicle: Klucel (hydroxypropylcellulose) (HPC) 91 % of control and 97 % of control | dose: 1024.0 mg/kg/injection, schedule: Q01DX005 (ip), vehicle: saline 109 % of control | dose: 1024.0 mg/kg/injection, schedule: Q01DX005 (oral), vehicle: Klucel (hydroxypropylcellulose) (HPC) 115 % of control | dose: 1024.0 mg/kg/injection, schedule: Q#A X002 (ip), vehicle: Klucel (hydroxypropylcellulose) (HPC) 99 % of control

O=S(=O)(O)O
inactive: [3] 90 % of control | [4] 94 % of control | dose: 64.0 mg/kg/injection, schedule: Q01DX005 (ip), vehicle: saline with Tween-80 112 % of control

Cc1[nH]c(=O)[nH]c(=O)c1N(CCF)CCCl
inactive: [17] 96 % of control and 104 % of control | [1] 97 % of control and 105 % of control | dose: 4.0 mg/kg/injection, schedule: Q## X006 (ip), vehicle: Klucel (hydroxypropylcellulose) (HPC) 111 % of control | [2] 97 % of control and 106 % of control | dose: 8.0 mg/kg/injection, schedule: Q## X006 (ip), vehicle: Klucel (hydroxypropylcellulose) (HPC) 106 % of control | dose: 8.0 mg/kg/injection, schedule: Q#A X002 (ip), vehicle: Klucel (hydroxypropylcellulose) (HPC) 101 % of control | [11] 93 % of control and 102 % of control | [3] 108 % of control and 109 % of control | [12] 111 % of control | [13] 99 % of control | dose: 32.0 mg/kg/injection, schedule: Q01DX001 (ip), vehicle: Klucel (hydroxypropylcellulose) (HPC) 92 % of control and 101 % of control and 105 % of control | dose: 32.0 mg/kg/injection, schedule: Q01DX005 (oral), vehicle: Klucel (hydroxypropylcellulose) (HPC) 94 % of control | dose: 32.0 mg/kg/injection, schedule: Q#A X002 (ip), vehicle: Klucel (hydroxypropylcellulose) (HPC) 111 % of control | [14] 101 % of control and 114 % of control | [15] 96 % of control and 107 % of control and 111 % of control | dose: 128.0 mg/kg/injection, schedule: Q01DX001 (ip), vehicle: Klucel (hydroxypropylcellulose) (HPC) 87 % of control | dose: 128.0 mg/kg/injection, schedule: Q01DX001 (oral), vehicle: Klucel (hydroxypropylcellulose) (HPC) 90 % of control and 111 % of control | [16] 107 % of control and 86 % of control | dose: 512.0 mg/kg/injection, schedule: Q01DX001 (oral), vehicle: Klucel (hydroxypropylcellulose) (HPC) 115 % of control

NC(=O)c1ncn(C2OC(CO)C(O)C2O)n1 (centres undefined)
inactive: dose: 20.0 mg/kg/injection, schedule: Q01DX005 (ip), vehicle: saline 108 % of control | dose: 40.0 mg/kg/injection, schedule: Q01DX005 (ip), vehicle: saline 105 % of control | dose: 80.0 mg/kg/injection, schedule: Q01DX005 (ip), vehicle: saline 108 % of control

Cc1nc(N)nc(N)c1-c1ccc(Cl)c(Cl)c1
inactive: dose: 0.5 mg/kg/injection, schedule: Q01DX005 (ip), vehicle: saline with Tween-80 106 % of control and 117 % of control | dose: 1.0 mg/kg/injection, schedule: Q01DX005 (ip), vehicle: saline with Tween-80 89 % of control and 97 % of control | [17] 117 % of control | dose: 6.0 mg/kg/injection, schedule: Q04DX003 (ip), vehicle: saline 101 % of control | dose: 8.0 mg/kg/injection, schedule: Q04DX003 (ip), vehicle: saline 112 % of control
